Here are results for 10 compounds from patent US20240150377A1, “MODULATORS OF CYSTIC FIBROSIS TRANSMEMBRANE CONDUCTANCE REGULATOR” (VERTEX PHARMACEUTICALS INCORPORATED, priority 2020, published 2024).

The structures appear in SMILES notation. Read-outs that look alike come from different tables or passages of the source. Bounds are passed on as bounds.

The conditions of series [1]: amide bond, 13-membered ring, DMF.
In series [2] the target is CFTR (Homo sapiens, UniProt P13569). Put plainly: Membrane potential dye, Enteroid Assay A. The series is classed as cell-based. The following applies: for Ent. A Max Activity: chloride transport as % of triple combination control (Enteroid Assay A); for EC50: human enteroid cells, 18-24 hours, acute 10 μM forskolin and 300 nM ivacaftor, read-out: Ent. A EC50. The procedure, abridged: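 % Activity: chloride transport relative to a 3 μM/3 μM corrector pair plus 300 nM acute potentiator control. Primary human enteroid cells, 18-24 h compound exposure at 37 °C; membrane potential dye (methyl oxonol) fluorescence over 15 min after forskolin (10 μM)/IBMX (100 μM)/Compound III (300 nM) stimulation in chloride-free buffer.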
Sequence of CFTR (Homo sapiens, UniProt P13569) (P13569 with tags, fused parts or gaps DEL508-508): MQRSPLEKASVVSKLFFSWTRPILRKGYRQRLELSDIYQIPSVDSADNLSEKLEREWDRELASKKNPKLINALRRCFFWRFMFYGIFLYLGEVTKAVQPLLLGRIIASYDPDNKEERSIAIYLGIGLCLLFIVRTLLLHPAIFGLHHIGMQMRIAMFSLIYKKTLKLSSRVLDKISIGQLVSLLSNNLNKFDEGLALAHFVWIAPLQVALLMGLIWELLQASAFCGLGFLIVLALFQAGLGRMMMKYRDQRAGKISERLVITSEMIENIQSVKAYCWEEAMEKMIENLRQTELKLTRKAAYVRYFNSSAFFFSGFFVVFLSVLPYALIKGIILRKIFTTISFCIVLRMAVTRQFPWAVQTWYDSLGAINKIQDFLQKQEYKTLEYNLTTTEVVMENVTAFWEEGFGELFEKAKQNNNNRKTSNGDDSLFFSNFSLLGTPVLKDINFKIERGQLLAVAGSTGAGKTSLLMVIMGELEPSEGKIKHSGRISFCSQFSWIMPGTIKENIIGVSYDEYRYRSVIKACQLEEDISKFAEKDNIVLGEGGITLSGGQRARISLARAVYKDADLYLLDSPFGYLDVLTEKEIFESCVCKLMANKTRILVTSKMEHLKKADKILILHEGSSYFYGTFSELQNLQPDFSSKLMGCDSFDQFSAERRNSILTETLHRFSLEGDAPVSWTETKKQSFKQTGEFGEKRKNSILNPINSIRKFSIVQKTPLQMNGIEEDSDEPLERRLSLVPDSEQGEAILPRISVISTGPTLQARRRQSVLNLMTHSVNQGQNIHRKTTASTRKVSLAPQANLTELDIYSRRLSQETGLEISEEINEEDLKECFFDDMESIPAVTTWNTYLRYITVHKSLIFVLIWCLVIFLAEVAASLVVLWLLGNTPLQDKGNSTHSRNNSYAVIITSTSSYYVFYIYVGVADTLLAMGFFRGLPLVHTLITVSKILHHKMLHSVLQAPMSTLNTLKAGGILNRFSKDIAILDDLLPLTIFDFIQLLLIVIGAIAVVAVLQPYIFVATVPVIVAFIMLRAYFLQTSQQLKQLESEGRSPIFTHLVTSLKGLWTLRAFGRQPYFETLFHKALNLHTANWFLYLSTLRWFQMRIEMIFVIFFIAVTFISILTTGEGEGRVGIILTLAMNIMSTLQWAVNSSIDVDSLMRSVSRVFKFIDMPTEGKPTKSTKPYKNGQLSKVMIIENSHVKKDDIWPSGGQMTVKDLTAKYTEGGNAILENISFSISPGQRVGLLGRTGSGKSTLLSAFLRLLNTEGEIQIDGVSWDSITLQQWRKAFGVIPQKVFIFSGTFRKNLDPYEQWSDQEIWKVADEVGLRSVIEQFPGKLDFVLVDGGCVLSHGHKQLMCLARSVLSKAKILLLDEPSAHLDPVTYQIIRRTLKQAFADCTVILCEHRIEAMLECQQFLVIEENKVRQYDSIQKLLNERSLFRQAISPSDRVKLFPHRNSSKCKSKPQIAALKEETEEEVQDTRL

For series [3], the target named is T1, CFTR (Homo sapiens, UniProt P13569, DEL508-508).
T1 construct: endogenous in cells; host or cells: primary human bronchial epithelial cells from CF subjects (F508del/MF-HBE), differentiated at air-liquid interface
T1 sequence (P13569 with tags, fused parts or gaps DEL508-508): as above
Nature of the series: HBE assay: Ussing chamber assay of CFTR-mediated short-circuit currents. The following applies: HBE assay; 10 μM; read-out: HBE Activity at 10 μM (%). Format: cell-based. The procedure, abridged: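 CFTR-mediated Isc (μA/cm²) equals the peak response to apical 20 μM forskolin minus the residual after a 20 μM each BPO/GlyH-101/CFTR inhibitor 172 cocktail, recorded in Ussing chambers at Vhold 0 mV, 37 °C, pH 7.4, with 30 μM apical amiloride. Cells were F508del/MF HBE cultures preincubated 18-24 h with corrector (concentration range or 10 μM) plus 1 μM ivacaftor in 20% human serum.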

Series [4] addresses T1, CFTR. Nature of the series: HBE2 assay: Ussing chamber assay of CFTR-mediated short-circuit currents. The series is classed as cell-based. The following applies: F508del/MF-HBE cells, with 44 nM potentiator, 18-24 hours, 20% human serum; for Emax: read-out: HBE2 Max activity (%). A digest of the protocol:
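Corrector activity read as CFTR-dependent ISC (μA/cm^2): peak forskolin current minus post-inhibitor steady state. Measured at 37 °C, voltage clamp at 0 mV, on F508del/MF-HBE epithelia grown >14 days air-liquid interface in Ussing chambers.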

In the case of `Cc1cccc(C)c1-c1cc2nc(n1)NS(=O)(=O)c1cccc(c1)C(=O)N(C)CC(c1ccc(C(C)(C)C)cc1)O2` (racemic) [Compound 10, 10-(4-tert-butylphenyl)-6-(2,6-dimethylphenyl)-12-methyl-2,2-dioxo-9-oxa-2λ^6-thia-3,5,12,19-tetrazatricyclo[12.3.1.14,8]nonadeca-1(18),4(19),5,7,14,16-hexaen-13-one], in series [1] (from CNCC(Oc1cc(-c2c(C)cccc2C)nc(NS(=O)(=O)c2cccc(C(=O)O)c2)n1)c1ccc(C(C)(C)C)cc1, HATU/DIEA, 15.4 mM, 25.0 °C, 0.25 h, 2 steps), the ring closure, yield after HPLC was found to be 19%. Besides, on CFTR [2] (Table 6), the “Ent. A Max Activity” value is reported as “+++ (+++ is >60%)” and the EC50 is less than 1 µM.
In series [1] (from CNCC(Oc1cc(-c2c(C)cccc2C)nc(NS(=O)(=O)c2cccc(C(=O)O)c2)n1)c1cccc(C(C)(C)C)c1, HATU/DIEA, 32.6 mM, 25.0 °C, 1.0 h, 2 steps), `Cc1cccc(C)c1-c1cc2nc(n1)NS(=O)(=O)c1cccc(c1)C(=O)N(C)CC(c1cccc(C(C)(C)C)c1)O2` (racemic) [Compound 16, 10-(3-tert-butylphenyl)-6-(2,6-dimethylphenyl)-12-methyl-2,2-dioxo-9-oxa-2λ^6-thia-3,5,12,19-tetrazatricyclo[12.3.1.14,8]nonadeca-1(18),4(19),5,7,14,16-hexaen-13-one] showed a ring closure, yield after HPLC of 51%. Besides, on CFTR [2] (Table 7), the “Ent. A Max Activity” value was “++ (++ is 30-60%)” and the EC50 was less than 1 µM.
`Cc1cccc(C)c1-c1cc2nc(n1)NS(=O)(=O)c1cccc(c1)C(=O)N(CCC(C)(C)C)CC(c1ccc(C(C)(C)C)cc1)O2` (centres unmarked) [Compound 14, 10-(4-tert-butylphenyl)-12-(3,3-dimethylbutyl)-6-(2,6-dimethylphenyl)-2,2-dioxo-9-oxa-2λ^6-thia-3,5,12,19-tetrazatricyclo[12.3.1.14,8]nonadeca-1(18),4(19),5,7,14,16-hexaen-13-one] gave a ring closure, yield after HPLC in series [1] (from Cc1cccc(C)c1-c1cc(OC(CNCCC(C)(C)C)c2ccc(C(C)(C)C)cc2)nc(NS(=O)(=O)c2cccc(C(=O)O)c2)n1, HATU/TEA, 0.42 h, 2 steps) of 6%. Moreover, on CFTR [2] (Table 6), the “Ent. A Max Activity” value is on record as “++ (++ is 30-60%)” and the EC50 was less than 1 µM.
Compound `Cc1cccc(C)c1-c1cc2nc(n1)NS(=O)(=O)c1cccc(c1)C(=O)N(CCC1CCOCC1)C(CCC1(C(F)(F)F)CC1)CO2` (centres unmarked) [Compound 74, 6-(2,6-dimethylphenyl)-2,2-dioxo-12-(2-tetrahydropyran-4-ylethyl)-11-[2-[1-(trifluoromethyl)cyclopropyl]ethyl]-9-oxa-2λ^6-thia-3,5,12,19-tetrazatricyclo[12.3.1.14,8]nonadeca-1(18),4(19),5,7,14,16-hexaen-13-one] displayed a ring closure, yield after HPLC in series [1] (from Cc1cccc(C)c1-c1cc(OCC(CCC2(C(F)(F)F)CC2)NCCC2CCOCC2)nc(NS(=O)(=O)c2cccc(C(=O)O)c2)n1, HATU/DIEA, 24.1 mM, 16.0 h) of 23%. Also, on CFTR [2] (Table 6), the “Ent. A Max Activity” value is on record as “+++ (+++ is >60%)” and the EC50 was less than 1 µM.
The compound `Cc1cccc(C)c1-c1cc2nc(n1)NS(=O)(=O)c1cccc(c1)C(=O)N(Cc1cn(C)nc1C(C)(C)C)[C@H](CC(C)C)CO2` [Compound 83, (11R)-12-[(3-tert-Butyl-1-methyl-pyrazol-4-yl)methyl]-6-(2,6-dimethylphenyl)-11-isobutyl-2,2-dioxo-9-oxa-2λ^6-thia-3,5,12,19-tetrazatricyclo[12.3.1.14,8]nonadeca-1(18),4(19),5,7,14,16-hexaen-13-one] showed a ring closure, yield after HPLC in series [1] (from Cc1cccc(C)c1-c1cc(OC[C@@H](CC(C)C)NCc2cn(C)nc2C(C)(C)C)nc(NS(=O)(=O)c2cccc(C(=O)O)c2)n1, HATU/DIEA, 20.4 mM, 25.0 °C, 18.0 h) of 32%. At CFTR [2] (Table 7), the “Ent. A Max Activity” value is recorded as “+++ (+++ is >60%)” and the EC50 was less than 1 µM.
`Cc1cccc(C)c1-c1cc2nc(n1)NS(=O)(=O)c1cccc(c1)C(=O)N(C)CC(c1ccc(C(C)(C)C)cn1)O2` (centres unmarked) [Compound 101, 10-(5-tert-butyl-2-pyridyl)-6-(2,6-dimethylphenyl)-12-methyl-2,2-dioxo-9-oxa-2λ^6-thia-3,5,12,19-tetrazatricyclo[12.3.1.14,8]nonadeca-1(18),4(19),5,7,14,16-hexaen-13-one] registered a ring closure, yield after HPLC in series [1] (from CNCC(Oc1cc(-c2c(C)cccc2C)nc(NS(=O)(=O)c2cccc(C(=O)O)c2)n1)c1ccc(C(C)(C)C)cn1, HATU/DIEA, 10.5 mM, 25.0 °C, 0.083 h, 2 steps) of 55%. On CFTR [2] (Table 6), the “Ent. A Max Activity” value was “+++ (+++ is >60%)” and the EC50 is less than 1 µM.
In series [1] (from Cc1cccc(C)c1-c1cc(OC[C@@H](CC2(C)CC2)NCc2ncc(OC(C)C)cn2)nc(NS(=O)(=O)c2cccc(C(=O)O)c2)n1, CDMT/NMM, 33.8 mM, 4.0 h), `Cc1cccc(C)c1-c1cc2nc(n1)NS(=O)(=O)c1cccc(c1)C(=O)N(Cc1ncc(OC(C)C)cn1)[C@H](CC1(C)CC1)CO2` [Compound 1306, (11R)-6-(2,6-Dimethylphenyl)-12-[(5-isopropoxypyrimidin-2-yl)methyl]-11-[(1-methylcyclopropyl)methyl]-2,2-dioxo-9-oxa-2λ^6-thia-3,5,12,19-tetrazatricyclo[12.3.1.14,8]nonadeca-1(18),4(19),5,7,14,16-hexaen-13-one] showed a ring closure, yield after HPLC of 53%. On CFTR [3], the activation at 10 µM was greater than 60%. In addition, at CFTR [4], the “HBE2 Activity at 3 μM (%)” value is “+++ (+++ is >60+)”, the EC50 was less than 1 µM and the Emax is greater than 60%.
For `Cc1cccc(C)c1-c1cc2nc(n1)NS(=O)(=O)c1cccc(c1)C(=O)N(Cc1ncc(N3CC(C)(C)C3)cn1)[C@H](CC1(C)CC1)CO2` [Compound 1307, (11R)-12-[[5-(3,3-Dimethylazetidin-1-yl)pyrimidin-2-yl]methyl]-6-(2,6-dimethylphenyl)-11-[(1-methylcyclopropyl)methyl]-2,2-dioxo-9-oxa-2λ^6-thia-3,5,12,19-tetrazatricyclo[12.3.1.14,8]nonadeca-1(18),4(19),5,7,14,16-hexaen-13-one], the ring closure, yield after HPLC in series [1] (from Cc1cccc(C)c1-c1cc(OC[C@@H](CC2(C)CC2)NCc2ncc(N3CC(C)(C)C3)cn2)nc(NS(=O)(=O)c2cccc(C(=O)O)c2)n1, CDMT/NMM, 24.2 mM, 3.0 h) is 65%. The activation at 10 µM at CFTR [3] was greater than 60%. At CFTR [4], the “HBE2 Activity at 3 μM (%)” value is listed as “+++ (+++ is >60+)”.
Consider `Cc1cccc(C)c1-c1cc2nc(n1)NS(=O)(=O)c1cccc(c1)C(=O)N(Cc1ncc(OC(C)C)cn1)[C@H](CC1(C)CCC1)CO2` [Compound 1317, (11R)-6-(2,6-Dimethylphenyl)-12-[(5-isopropoxypyrimidin-2-yl)methyl]-11-[(1-methylcyclobutyl)methyl]-2,2-dioxo-9-oxa-2λ6-thia-3,5,12,19-tetrazatricyclo[12.3.1.14,8]nonadeca-1(18),4(19),5,7,14,16-hexaen-13-one], for which, in series [1] (from Cc1cccc(C)c1-c1cc(OC[C@@H](CC2(C)CCC2)NCc2ncc(OC(C)C)cn2)nc(NS(=O)(=O)c2cccc(C(=O)O)c2)n1, CDMT/NMM, 12.9 mM, 22.0 h), the ring closure, yield after HPLC amounted to 64%. Besides, the “HBE2 Activity at 3 μM (%)” value at CFTR [4] is on record as “+++ (+++ is >60+)”.
In series [1] (from Cc1cccc(C)c1-c1cc(OC[C@@H](CCC(C)(C)C)NCc2cncc(N(C)C3CCC3)n2)nc(NS(=O)(=O)c2cccc(C(=O)O)c2)n1, CDMT/NMM, 26.4 mM, 13.1 h), `Cc1cccc(C)c1-c1cc2nc(n1)NS(=O)(=O)c1cccc(c1)C(=O)N(Cc1cncc(N(C)C3CCC3)n1)[C@H](CCC(C)(C)C)CO2` [Compound 1319, (11R)-12-[[6-[Cyclobutyl(methyl)amino]pyrazin-2-yl]methyl]-11-(3,3-dimethylbutyl)-6-(2,6-dimethylphenyl)-2,2-dioxo-9-oxa-2λ^6-thia-3,5,12,19-tetrazatricyclo[12.3.1.14,8]nonadeca-1(18),4(19),5,7,14,16-hexaen-13-one] displayed a ring closure, yield after HPLC of 44%. Moreover, at CFTR [4], the “HBE2 Activity at 3 μM (%)” value is given as “+++ (+++ is >60+)”, the EC50 was less than 1 µM and the Emax was greater than 60%.

As a reminder, the EC50 is the concentration that produces a half-maximal response.
